In ChEMBL document CHEMBL2401610, “N-Benzyloxycarbonyl-S-(2,4-dinitrophenyl)glutathione dibutyl diester is inhibitory to melarsoprol resistant cell lines overexpressing the T. bruceiMRPA transporter” (Bioorg Med Chem Lett, 2013):

What was measured:
[1] = system: Trypanosoma brucei brucei; assay: Resistant factor, ratio of IC50 for bloodstream form of Trypanosoma brucei brucei expressing TbMRPA protein to IC50 for bloodstream form of wild type Trypanosoma brucei 247; format: functional
[2] = system: Trypanosoma brucei brucei; assay: Antitrypanosomal activity against bloodstream form of Trypanosoma brucei brucei expressing TbMRPA protein after 3 days by microplate assay; format: functional, organism-based; conditions: 72 h
[3] = system: Trypanosoma brucei brucei; assay: Antitrypanosomal activity against bloodstream form of wild type Trypanosoma brucei brucei 247 after 3 days by microplate assay; format: functional, organism-based; conditions: Trypanosoma brucei, 247, 72 h

SMILES | Ratio IC50 [1] | IC50 [2] [µM] | IC50 [3] [µM]
CCCCOC(=O)CNC(=O)[C@H](CSc1ccc([N+](=O)[O-])cc1[N+](=O)[O-])NC(=O)CC[C@H](NC(=O)OCc1ccccc1)C(=O)OCCCC | 1.4 | 6.5 | 4.5
Nc1nc(N)nc(Nc2ccc([As]3SCC(CO)S3)cc2)n1 (stereo not drawn) [MELARSOPROL] | 10 | – | –
O=C(O)CNC(=O)[C@H](CSC(=O)c1ccc(Br)cc1)NC(=O)CC[C@H](NC(=O)OCc1ccccc1)C(=O)O | 182 | 785 | 4.3
N[C@@H](CCC(=O)N[C@@H](CSC(=O)c1ccc(Br)cc1)C(=O)NCC(=O)O)C(=O)O | 1.8 | 163 | 87.5
COC(=O)CNC(=O)[C@H](CSC(=O)c1ccc(Br)cc1)NC(=O)CC[C@H](NC(=O)OCc1ccccc1)C(=O)OC | 16.6 | 58 | 3.5
